The values below come from patent US20220324835A1 (Nurix Therapeutics, Inc., priority 2018, published 2022).

Where only a bound is given, the exact number is not on record here.

Assay [1] deals with T-cell. As to the kind of experiment: IL-2 secretion from T-cells stimulated with anti-CD3 antibody alone (Biological Example 2). The settings on record: Homo sapiens, T-cell; 1 μM Cbl-b inhibitor; fold change over baseline (anti-CD3/anti-CD28 stimulated T-cells without inhibitor); read-out: IL-2 secretion Anti-CD3 stimulation. Format: cell-based, human.
The target of assay [2] is T1, Cbl-b (Homo sapiens, UniProt Q13191). Description: Cbl-b activity assay (Cbl-b inhibition assay), TR-FRET of Cbl-b interaction with UbcH5B-Ub. Format: biochemical. Particulars: assay buffer with 100 mM NaCl, 60 nM Src kinase; read-out: Cbl-b activity IC50. In a few lines:
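Compound-treated Cbl-b was incubated 1.5 h with Src kinase (60 nM final; 30 nM for asterisked values, which also used 50 mM instead of 100 mM NaCl), 1 mM ATP and 5 mM MgCl2. Binding to fluorescent Ub-loaded UbcH5B (C85K mutant) was then read by TR-FRET after 1 h more.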

Assay [3] has as its system T-cell. As to the kind of experiment: CD25 cell surface staining on T-cells co-stimulated with anti-CD3 and anti-CD28 antibody (Biological Example 2). Format: cell-based, human. Particulars: Homo sapiens, T-cell, fold change over baseline (anti-CD3/anti-CD28 stimulated T-cells without inhibitor), read-out: CD25 staining Anti-CD3/Anti-CD28 stimulation; for fold induction at 0.3 µM: 0.3 μM Cbl-b inhibitor; for fold induction at 1 µM: 1 μM Cbl-b inhibitor. In a few lines:
(§1)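 Values are fold-change over baseline: readings (IL-2 release, CD25 staining) from inhibitor-treated T-cells divided against untreated cells […]. No detailed procedure stated.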

Assay [4] deals with T-cell. Description: CD25 cell surface staining on T-cells stimulated with anti-CD3 antibody alone (Biological Example 2). Format: cell-based, human. The settings on record: Homo sapiens, T-cell; 1 μM Cbl-b inhibitor; fold change over baseline (anti-CD3/anti-CD28 stimulated T-cells without inhibitor); read-out: CD25 staining Anti-CD3 stimulation.
For assay [5], the system named is T-cell. Description: IL-2 secretion from T-cells co-stimulated with anti-CD3 and anti-CD28 antibody (Biological Example 2). The settings on record: Homo sapiens, T-cell, fold change over baseline (anti-CD3/anti-CD28 stimulated T-cells without inhibitor), read-out: IL-2 secretion Anti-CD3/Anti-CD28 stimulation; for fold induction at 0.3 µM: 0.3 μM Cbl-b inhibitor; for fold induction at 1 µM: 1 μM Cbl-b inhibitor. Format: cell-based, human. In a few lines: as §1

In assay [6] the target is T1, Cbl-b. Description: Cbl-b inhibition assay (Cbl-b activity assay, FRET, Biological Example 1; 100 mM NaCl, 60 nM Src kinase). Format: biochemical. The settings on record: upper bound stated in text lists; read-out: IC50 values in the Cbl-b inhibition assay of Biological Example 1. An outline of the steps: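 N-terminally biotinylated Avi-tagged Cbl-b was mixed with Src kinase, UbcH5B covalently conjugated to Bodipy-fluorescein ubiquitin, and streptavidin-terbium. Src phosphorylation lets Cbl-b bind UbcH5B-Ub, giving terbium-fluorescein FRET; inhibition is read as loss of FRET signal.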

T1 sequence (Q13191 36-427): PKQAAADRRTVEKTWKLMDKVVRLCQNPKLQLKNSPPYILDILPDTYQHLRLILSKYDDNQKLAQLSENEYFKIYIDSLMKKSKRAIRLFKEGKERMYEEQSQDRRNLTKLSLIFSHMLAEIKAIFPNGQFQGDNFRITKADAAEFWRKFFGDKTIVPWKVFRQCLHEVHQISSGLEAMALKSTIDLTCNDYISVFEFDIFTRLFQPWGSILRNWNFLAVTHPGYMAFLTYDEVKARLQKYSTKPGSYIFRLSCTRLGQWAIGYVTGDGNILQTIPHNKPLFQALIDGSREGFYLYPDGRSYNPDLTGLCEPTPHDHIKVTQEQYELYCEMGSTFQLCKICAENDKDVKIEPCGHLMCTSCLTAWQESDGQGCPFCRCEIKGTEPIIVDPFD

For the molecule `Cc1cc(C(=O)Nc2cccc(C3([C@H](F)c4nncn4C)COC3)c2)nc(C2CC2)n1` [Example 669a, (S)-2-cyclopropyl-N-(3-(3-(fluoro(4-methyl-4H-1,2,4-triazol-3-yl)methyl)oxetan-3-yl)phenyl)-6-methylpyrimidine-4-carboxamide], the fold induction at 1 µM in assay [1] was 0.151 to 0.2; in assay [3], 1.01 to 1.3; in assay [4] it was above 1; in assay [5] it was 5 to 7.5. Moreover, the figures for the 50% inhibitory concentration (IC50) in assay [2] and in assay [6] were below 100 nM and at most 100 nM, respectively. In addition, the fold induction at 0.3 µM in assay [3] lay within 1.01 to 1.3; in assay [5], 2.51 to 5.

As to `Cc1cc(C(=O)Nc2cccc(C3([C@@H](F)c4nncn4C)COC3)c2)nc(C2CC2)n1` [Example 669b, (R)-2-cyclopropyl-N-(3-(3-(fluoro(4-methyl-4H-1,2,4-triazol-3-yl)methyl)oxetan-3-yl)phenyl)-6-methylpyrimidine-4-carboxamide], the fold induction at 1 µM is above 0.201 in assay [1], 1.31 to 1.5 in assay [3], above 1 in assay [4] and above 7.5 in assay [5]. For the same molecule, the IC50 in assay [2] is below 100 nM; in assay [6], at most 100 nM. The fold induction at 0.3 µM is 1.01 to 1.3 in assay [3] and 2.51 to 5 in assay [5].

Take `Cn1cnnc1[C@@H](F)C1(c2cccc(N3Cc4c(cc(CN5C6CCC5CC6)cc4C(F)(F)F)C3=O)c2)COC1` [Example 671a, (S)-6-((7-azabicyclo[2.2.1]heptan-7-yl)methyl)-2-(3-(3-(fluoro(4-methyl-4H-1,2,4-triazol-3-yl)methyl)oxetan-3-yl)phenyl)-4-(trifluoromethyl)isoindolin-1-one]: the fold induction at 1 µM in assay [1] is above 0.201; in assay [3], above 1.76; in assay [4], 0.601 to 0.8; in assay [5] it was 5 to 7.5. The IC50 was below 100 nM in assay [2] and at most 100 nM in assay [6]. The fold induction at 0.3 µM in assay [3] fell in the range of 1.51 to 1.75; in assay [5] it was 2.51 to 5.

For the molecule `Cn1cnnc1[C@H](F)C1(c2cccc(N3Cc4c(cc(CN5C6CCC5CC6)cc4C(F)(F)F)C3=O)c2)COC1` [Example 671b, (R)-6-((7-azabicyclo[2.2.1]heptan-7-yl)methyl)-2-(3-(3-(fluoro(4-methyl-4H-1,2,4-triazol-3-yl)methyl)oxetan-3-yl)phenyl)-4-(trifluoromethyl)isoindolin-1-one], the fold induction at 1 µM is above 0.201 in assay [1], above 1.76 in assay [3], above 1 in assay [4] and above 7.5 in assay [5]. In addition, the IC50 in assay [2] was below 100 nM; in assay [6], at most 100 nM. For the same molecule, the values for the fold induction at 0.3 µM in assay [3] and in assay [5] were above 1.76 and above 7.5, respectively.

`Cn1cnnc1[C@@H](F)C1(c2cccc(N3Cc4c(cc(CN5[C@@H]6CC[C@H]5C[C@@H](F)C6)cc4C(F)(F)F)C3=O)c2)COC1` [Example 672a, 2-(3-(3-((S)-fluoro(4-methyl-4H-1,2,4-triazol-3-yl)methyl)oxetan-3-yl)-phenyl)-6-(((1R,3S,5S)-3-fluoro-8-azabicyclo[3.2.1]octan-8-yl)methyl)-4-(trifluoromethyl)isoindolin-1-one]: the fold induction at 1 µM in assay [1] was above 0.201; in assay [3] it was above 1.76; in assay [4], 0.801 to 1; in assay [5], above 7.5. The values for the IC50 in assay [2] and in assay [6] were below 100 nM and at most 100 nM, respectively. Further, the fold induction at 0.3 µM is above 1.76 in assay [3] and 2.51 to 5 in assay [5].

Regarding `Cn1cnnc1[C@H](F)C1(c2cccc(N3Cc4c(cc(CN5[C@@H]6CC[C@H]5C[C@@H](F)C6)cc4C(F)(F)F)C3=O)c2)COC1` [Example 672b, 2-(3-(3-((R)-fluoro(4-methyl-4H-1,2,4-triazol-3-yl)methyl)oxetan-3-yl)phenyl)-6-(((1R,3R,5S)-3-fluoro-8-azabicyclo[3.2.1]octan-8-yl)methyl)-4-(trifluoromethyl)isoindolin-1-one], the fold induction at 1 µM in assay [1] was above 0.201; in assay [3], above 1.76; in assay [4], above 1; in assay [5], above 7.5. The IC50 in assay [2] was below 100 nM; in assay [6], at most 100 nM. For the same molecule, the fold induction at 0.3 µM in assay [3] is above 1.76; in assay [5], above 7.5.

As for `Cn1cnnc1[C@@H](F)C1(c2cccc(N3Cc4c(cc(CN5CCCC5)cc4C(F)(F)F)C3=O)c2)COC1` [Example 673a, (S)-2-(3-(3-(fluoro(4-methyl-4H-1,2,4-triazol-3-yl)methyl)oxetan-3-yl)phenyl)-6-(pyrrolidin-1-ylmethyl)-4-(trifluoromethyl)isoindolin-1-one], the fold induction at 1 µM in assay [1] was above 0.201; in assay [3], above 1.76; in assay [4], 0.801 to 1; in assay [5], above 7.5. Also, the IC50 in assay [2] was below 100 nM; in assay [6] it was at most 100 nM. Further, the fold induction at 0.3 µM in assay [3] was above 1.76; in assay [5], 5 to 7.5.

As for `Cn1cnnc1[C@H](F)C1(c2cccc(N3Cc4c(cc(CN5CCCC5)cc4C(F)(F)F)C3=O)c2)COC1` [Example 673b, (R)-2-(3-(3-(fluoro(4-methyl-4H-1,2,4-triazol-3-yl)methyl)oxetan-3-yl)phenyl)-6-(pyrrolidin-1-ylmethyl)-4-(trifluoromethyl)isoindolin-1-one], the fold induction at 1 µM in assay [1] is above 0.201; in assay [3], 1.31 to 1.5; in assay [4], above 1; in assay [5], above 7.5. Moreover, the IC50 was below 100 nM in assay [2] and at most 100 nM in assay [6]. Also, the fold induction at 0.3 µM in assay [3] is 1.31 to 1.5; in assay [5], above 7.5.

On to `Cn1cnnc1[C@@H](F)C1(c2cccc(N3Cc4c(cc(CN5CCCCC5)cc4C(F)(F)F)C3=O)c2)COC1` [Example 674a, (S)-2-(3-(3-(fluoro(4-methyl-4H-1,2,4-triazol-3-yl)methyl)oxetan-3-yl)phenyl)-6-(piperidin-1-ylmethyl)-4-(trifluoromethyl)isoindolin-1-one], for which the fold induction at 1 µM in assay [1] is 0.101 to 0.15; in assay [3], 1.51 to 1.75; in assay [4], above 1; in assay [5], above 7.5. In addition, the IC50 in assay [2] was below 100 nM; in assay [6], at most 100 nM. The fold induction at 0.3 µM is 1.31 to 1.5 in assay [3] and above 7.5 in assay [5].

As for `Cn1cnnc1[C@H](F)C1(c2cccc(N3Cc4c(cc(CN5CCCCC5)cc4C(F)(F)F)C3=O)c2)COC1` [Example 674b, (R)-2-(3-(3-(fluoro(4-methyl-4H-1,2,4-triazol-3-yl)methyl)oxetan-3-yl)phenyl)-6-(piperidin-1-ylmethyl)-4-(trifluoromethyl)isoindolin-1-one], the fold induction at 1 µM in assay [1] was above 0.201; in assay [3], 1.01 to 1.3; in assay [4] it was above 1; in assay [5], above 7.5. The IC50 in assay [2] was below 100 nM; in assay [6] it was at most 100 nM. Moreover, the fold induction at 0.3 µM is 1.01 to 1.3 in assay [3] and above 7.5 in assay [5].

Regarding `Cn1cnnc1[C@@H](F)C1(c2cccc(N3Cc4c(cc(CN5C6CCCC5CC6)cc4C(F)(F)F)C3=O)c2)COC1` [Example 675a, 6-((8-azabicyclo[3.2.1]octan-8-yl)methyl)-2-(3-(3-((S)-fluoro(4-methyl-4H-1,2,4-triazol-3-yl)methyl)oxetan-3-yl)phenyl)-4-(trifluoromethyl)isoindolin-1-one], the fold induction at 1 µM in assay [1] is 0.101 to 0.15; in assay [3] it was 1.31 to 1.5; in assay [4], above 1; in assay [5], 5 to 7.5. The IC50 in assay [2] is below 100 nM; in assay [6] it was at most 100 nM. Besides, the fold induction at 0.3 µM in assay [3] is 1.01 to 1.3; in assay [5], 2.51 to 5.
